Experimental data from ChEMBL document CHEMBL5528003 (Eur J Med Chem, 2024).

What was measured:
[1] = Metabolic stability in rat liver microsomes assessed as parent compound remaining incubated for 60 mins in presence of NADPH by LC-MS/MS analysis; assay type: ADME, Microsome; details: read-out: Stability
[2] = Metabolic stability in human liver microsomes assessed as parent compound remaining incubated for 60 mins in presence of NADPH by LC-MS/MS analysis; assay type: ADME, Microsome; details: read-out: Stability
Estrogen receptor = target: T1, Estrogen receptor (Homo sapiens, UniProt P03372); experiment: Induction of Estrogen receptor degradation in wildtype human MCF7 cells assessed as reduction in estrogen receptor level incubated for 24 hrs by Western blot analysis; assay type: cell-based
T1 sequence (P03372 whole entry): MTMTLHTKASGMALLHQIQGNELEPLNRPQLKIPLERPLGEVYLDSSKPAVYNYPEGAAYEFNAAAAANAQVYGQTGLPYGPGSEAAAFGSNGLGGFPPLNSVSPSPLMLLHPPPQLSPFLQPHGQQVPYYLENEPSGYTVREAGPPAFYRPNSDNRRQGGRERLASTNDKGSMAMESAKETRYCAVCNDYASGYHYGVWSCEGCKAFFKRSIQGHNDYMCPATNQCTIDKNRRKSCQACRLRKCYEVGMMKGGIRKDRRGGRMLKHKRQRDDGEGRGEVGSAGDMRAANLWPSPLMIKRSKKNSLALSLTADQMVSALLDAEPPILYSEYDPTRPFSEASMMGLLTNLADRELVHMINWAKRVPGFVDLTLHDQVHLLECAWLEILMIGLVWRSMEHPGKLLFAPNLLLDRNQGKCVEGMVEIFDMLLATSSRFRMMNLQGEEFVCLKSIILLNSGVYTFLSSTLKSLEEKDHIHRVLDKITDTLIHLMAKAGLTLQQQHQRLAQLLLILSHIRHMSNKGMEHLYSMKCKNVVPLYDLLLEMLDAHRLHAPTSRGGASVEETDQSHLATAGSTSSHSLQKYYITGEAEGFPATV

MCF7 = experiment: Antiproliferative activity against wildtype human MCF7 cells assessed as inhibition of cell proliferation incubated for 6 days in presence of beta-estradiol by CellTiter-Glo assay; assay type: functional, cell-based; details: MCF7, 144 h

remaining at 1 h [1] | remaining at 1 h [2] | DC50 (Estrogen receptor) | IC50 (MCF7) | SMILES
71.6% | 43% | – | – | C[C@@H]1Cc2c([nH]c3ccccc23)[C@@H](c2c(F)cc(NC3CN(CC[S+]([O-])CCCC(F)(F)C(F)(F)F)C3)cc2F)N1CC(F)(F)F (some centres undefined)
78% | 29.1% | – | – | C[C@@H]1Cc2c([nH]c3ccccc23)[C@@H](c2c(F)cc(NC3CN(CC[S+]([O-])CCCC(F)(F)C(F)(F)F)C3)cc2F)N1CC(F)(F)CO (some centres undefined)
93.7% | 57.4% | 1.7 nM | 2.7 nM | C[C@@H]1Cc2c([nH]c3ccccc23)[C@@H](c2c(F)cc(NC3CN(CCC[S+]([O-])CCCC(F)(F)C(F)(F)F)C3)cc2F)N1CC(F)(F)F (some centres undefined)
– | – | 3.8 nM | – | C[C@@H]1Cc2c([nH]c3ccccc23)[C@@H](c2c(F)cc(NC3CN(CCOCCCC(F)(F)C(F)(F)F)C3)cc2F)N1CC(F)(F)CO
